These results are taken from patent US20260042773A1, “NOVEL CAMPTOTHECIN ANALOGS AND IMMUNOCONJUGATES THEREOF” (priority 2022, published 2026).

The test system of one experiment is SU-DHL-1 cells. As to the kind of experiment: Cell viability (Cell Titer Glo 2.0) in SU-DHL-1 cells. It counts as cell-based. As to conditions: Homo sapiens, 120 hours at 37° C., Cell Titer Glo 2.0, normalized to non-treated controls. As to the method:
(§1) SU-DHL-1 and SK-BR-3 cells (ATCC, Manassas, VA, USA) were seeded into 384-well white-walled culture plates and allowed to adhere for 2-4 hours. Cells were then treated at least in duplicate by addition of 5-fold serially diluted test articles prepared at 2× final concentration and incubated at 37° C. for 120 hours. Cell viability following treatment was determined by Cell Titer Glo 2.0 Assay (Promega, Madison, WI, USA) and normalized to non-treated controls. Dose-response relationships were analyzed using GraphPad Prism (La Jolla, C A, USA), and IC50 values were derived from non-linear regression analyses using a 4-parameter logistic equation.
Background: In ATP-based viability assays light output follows the ATP content of the culture.

The test system of a further experiment is SK-BR-3 cells. As to the kind of experiment: Cell viability (Cell Titer Glo 2.0) in SK-BR-3 cells. The class given is cell-based. As to conditions: Homo sapiens, 120 hours at 37° C., Cell Titer Glo 2.0, normalized to non-treated controls. As to the method: as §1

Take `CC[C@@]1(O)C(=O)OCc2c1cc1n(c2=O)Cc2c-1nc1ccc(N)cc1c2CN1CCOCC1` [Compound 1]: the results for the IC50 with SU-DHL-1 cells and in the experiment on SK-BR-3 cells were less than 5 nM and 5 to 20 nM, respectively.
Consider `CC[C@@]1(O)C(=O)OCc2c1cc1n(c2=O)Cc2c-1nc1ccc(N)cc1c2CN1CCN(C)CC1` [Compound 2], for which the IC50 (commonly the concentration that inhibits the measured activity by half) in the experiment with SU-DHL-1 cells was 5 to 20 nM; in the experiment on SK-BR-3 cells, greater than 20 nM.
With `CC[C@@]1(O)C(=O)OCc2c1cc1n(c2=O)Cc2c-1nc1ccc(N)cc1c2CN1CCS(=O)(=O)CC1` [Compound 3], the IC50 with SU-DHL-1 cells and with SK-BR-3 cells was greater than 20 nM in each case.
Regarding `CC[C@@]1(O)C(=O)OCc2c1cc1n(c2=O)Cc2c-1nc1ccc(N)cc1c2COC` [Compound 4], the IC50 with SU-DHL-1 cells and in the experiment with SK-BR-3 cells was less than 5 nM throughout.
Turning to `CC[C@@]1(O)C(=O)OCc2c1cc1n(c2=O)Cc2c-1nc1ccc(N)cc1c2N1CCOCC1` [Compound 5], the IC50 in the experiment with SU-DHL-1 cells and in the experiment with SK-BR-3 cells was less than 5 nM throughout.
For `CC[C@@]1(O)C(=O)OCc2c1cc1n(c2=O)Cc2c-1nc1ccc(N)cc1c2N1CCCC1` [Compound 6], the IC50 with SU-DHL-1 cells and in the experiment with SK-BR-3 cells was 5 to 20 nM each time.
On to `CC[C@@]1(O)C(=O)OCc2c1cc1n(c2=O)Cc2c-1nc1ccc(N)cc1c2N1CC2(COC2)C1` [Compound 7], for which the IC50 in the experiment with SU-DHL-1 cells and in the experiment on SK-BR-3 cells was 5 to 20 nM throughout.
For `CC[C@@]1(O)C(=O)OCc2c1cc1n(c2=O)Cc2c-1nc1ccc(N)cc1c2N1CCC1` [Compound 8], the IC50 with SU-DHL-1 cells and in the experiment on SK-BR-3 cells was 5 to 20 nM each time.
With `CC[C@@]1(O)C(=O)OCc2c1cc1n(c2=O)Cc2c-1nc1ccc(N)cc1c2N1CC2(CCOCC2)C1` [Compound 9], the IC50 is less than 5 nM in the experiment on SU-DHL-1 cells and 5 to 20 nM in the experiment with SK-BR-3 cells.
For the molecule `CC[C@@]1(O)C(=O)OCc2c1cc1n(c2=O)Cc2c-1nc1ccc(N)cc1c2CO` [Compound 10], the 50% inhibitory concentration (IC50) in the experiment with SU-DHL-1 cells and in the experiment with SK-BR-3 cells was 5 to 20 nM each time.
With `CC[C@@]1(O)C(=O)OCc2c1cc1n(c2=O)Cc2c-1nc1ccc(N)cc1c2N1CC2(CCOC2)C1` [Compound 11], the IC50 in the experiment with SU-DHL-1 cells and in the experiment with SK-BR-3 cells was less than 5 nM in each case.
On to `CC[C@@]1(O)C(=O)OCc2c1cc1n(c2=O)Cc2c-1nc1ccc(N)cc1c2N1CCCCC1` [Compound 12], for which the IC50 in the experiment on SU-DHL-1 cells and with SK-BR-3 cells was less than 5 nM each time.
As for `CC[C@@]1(O)C(=O)OCc2c1cc1n(c2=O)Cc2c-1nc1ccc(N)cc1c2N(C)C` [Compound 14], the IC50 in the experiment with SU-DHL-1 cells and in the experiment on SK-BR-3 cells was 5 to 20 nM each time.
Consider `CC[C@@]1(O)C(=O)OCc2c1cc1n(c2=O)Cc2c-1nc1ccc(N)cc1c2N1CCN(S(C)(=O)=O)CC1` [Compound 15], for which the IC50 is 5 to 20 nM with SU-DHL-1 cells and greater than 20 nM in the experiment on SK-BR-3 cells.
As for `CC[C@@]1(O)C(=O)OCc2c1cc1n(c2=O)Cc2c-1nc1ccc(N)cc1c2N(C)CCOC` [Compound 16], the IC50 was less than 5 nM in the experiment on SU-DHL-1 cells and 5 to 20 nM in the experiment with SK-BR-3 cells.
In the case of `CC[C@@]1(O)C(=O)OCc2c1cc1n(c2=O)Cc2c-1nc1ccc(N)cc1c2N(C)CCN(C)C` [Compound 17], the IC50 in the experiment on SU-DHL-1 cells and with SK-BR-3 cells was greater than 20 nM throughout.
Take `CC[C@@]1(O)C(=O)OCc2c1cc1n(c2=O)Cc2c-1nc1ccc(N)cc1c2N1C[C@H]2CC[C@@H](C1)O2` [Compound 18]: the IC50 in the experiment on SU-DHL-1 cells and in the experiment with SK-BR-3 cells was less than 5 nM each time.
For `CC[C@@]1(O)C(=O)OCc2c1cc1n(c2=O)Cc2c-1nc1ccc(N)cc1c2NC` [Compound 19], the figures for the IC50 in the experiment with SU-DHL-1 cells and with SK-BR-3 cells were greater than 20 nM and 5 to 20 nM, respectively.
In the case of `CC[C@@]1(O)C(=O)OCc2c1cc1n(c2=O)Cc2c-1nc1ccc(N)cc1c2N(C)CCO` [Compound 20], the half-maximal inhibitory concentration (IC50) in the experiment with SU-DHL-1 cells and in the experiment on SK-BR-3 cells was greater than 20 nM each time.
Regarding `CC[C@@]1(O)C(=O)OCc2c1cc1n(c2=O)Cc2c-1nc1ccc(N)cc1c2N` [Compound 21], the values for the IC50 in the experiment with SU-DHL-1 cells and in the experiment on SK-BR-3 cells were greater than 20 nM and 5 to 20 nM, respectively.
For the molecule `CC[C@@]1(O)C(=O)OCc2c1cc1n(c2=O)Cc2c-1nc1ccc(N)cc1c2N1CCSCC1` [Compound 23], the concentration for half-maximal inhibition (IC50) in the experiment on SU-DHL-1 cells and in the experiment with SK-BR-3 cells was less than 5 nM throughout.
